Source: publication PMC9731497, “Identification of potent anti-Cryptosporidium new drug leads by screening traditional Chinese medicines” (PLOS Neglected Tropical Diseases, 2022)
Values joined by “and” are separate entries in the source; they are usually repeats but may differ in a detail not shown here. Equal values may be shown once. Read-outs that look alike come from different tables or passages of the source.

Tests used:
[1] = system: C. parvum HNJ-1 strain; test: In vivo C. parvum growth inhibition assay (oocyst shedding in feces of infected SCID mice, sugar flotation); design: species or system Cryptosporidium parvum; settings: 11 days; for No. of oocysts, Mean: SCID mice n=3, mean of days 3, 6, 7, 9, 12, 14; for % reduction in oocyst shedding: SCID mice n=3, vs untreated infected control
[2] = Liver histology (sub-effects of drugs, hepatocellular damage) in treated mice; format: in vivo, SCID mice
Method: (§1) We performed a histopathological analysis to evaluate the growth inhibitory effects and toxicity of the hit compounds in C. parvum-infected mice. In brief, ileum was collected, fixed in 10% neutral buffered formalin, and paraffin-embedded. Each section was cut to a thickness of 4 μm for hematoxylin and eosin (HE) staining and immunohistochemistry. Immunohistochemistry (IHC) was performed following standard techniques using the Envision+ system (Agilent Technologies, Inc., Santa Clara, CA) and 3,3-diaminobenzidine (DAB)(Dojindo, Kumamoto, Japan). Anti-Toxoplasma gondii (RH strain) rabbit polyclonal IgG (Abcam, Cambridge, UK) was used as the primary antibody. The antibody cross reacts with C. Parvum. To reduce the endogenous peroxidase activity, the sections were incubated with 3% H2O2 for 5 minutes. Sections were incubated with primary antibodies overnight at 4°C. After washing with PBS with Tween 20 (PBST), sections were incubated with Envision+ single polymer solution (Agilent Technologies Inc.) for 30 minutes at room temperature. Sections were counterstained with Mayer’s hematoxylin. The severity of C. parvum infection was evaluated in the most severe area, and scored from—to 3+ (-, no oocysts; 1+, mild focal infection; 2+, moderate multifocal infection; 3+, severe diffuse infection). Sub-effects of drugs (hepatocellular damage) were evaluated for major histological changes in karyomegaly, hepatocellular hypertrophy, and interstitial fibrosis/inflammation. We also checked the organs (liver, heart, lung, kidney, and intestines) alteration at necropsy whether it has abnormal or normal.

[3] = initial dose-finding doses, 11 consecutive days (S1 Fig)
Method: The growth inhibitory effect of the hit compounds was assessed in a mouse model infected with C. parvum oocysts. In this experiment, four-week-old female SCID mice (Charles River Laboratories, Shizuoka, Japan) were used. In the infected groups, mice were orally inoculated with 1.0 × 10^5 C. parvum oocysts by using sterile gavage needles. Initially, four compounds were tested at different concentrations to figure out the optimum dosages. Six groups of mice were given oral dosages of 50, 25, and 12.5 mg/kg body weight (BW) of two compounds (alisol-A and alisol-B). […] Bufotalin was given orally at three different doses to the other mouse group: 0.1, 0.05, and 0.025 mg/kg BW. […] The positive control group consisted of infected and untreated mice, whereas the negative control group consisted of noninfected and untreated mice. Treatment began on the third day after infection and lasted until the thirteenth day. The body weight and condition were checked every day, and treatment was given based on the body weight. On days 1, 3, 6, 7, 9, 12, 14, fecal samples were taken. The total number of oocysts per gram was calculated after counting the oocysts in the feces using the sugar flotation method. The treated and untreated mice were euthanized by cervical dislocation on day 14, and a thorough necropsy was performed.

[4] = Host cell viability assay (Cell-Titer Glo); settings: human
Method: (§2) HCT-8 cells (4 × 10^4 cells/well) 100 μl were seeded in 96-well plates, cultured for 24 h, and then treated for 48 h with different concentrations of hit compounds (10^1, 1, 10^−1, 10^−2, 10^−3, 10^−4 μM). After a 48-h incubation period, equilibrate the 96-well plates in room temperature (RT) for 30 minutes. Then, equal volume of Cell-Titer Glo (Promega) reagent was added to each treated well, the plate was shaken on an orbital shaker for 2 minutes then incubated for 10 minutes at RT. The luminescence was quantified by the GloMax Navigator plate reader (Promega, Japan) and the cell viability was evaluated as directed by the kit manufacturer. The luminescence signal of control wells containing DMSO was set to 100% cell viability. […] Graph Pad Prism 7.0.1 was used to determine CC50 values.

[5] = system: HCT-8 cells; test: Host cell viability assay (Cell-Titer Glo); settings: HCT-8 cells, 48 h, 1 μM
Method: as §2

[6] = system: C. parvum; test: Histopathological analysis and immunohistochemistry of ileum of C. parvum-infected mice; format: in vivo, Cryptosporidium parvum; design: key to severity of C. parvum infection in ileum, Score: -, no oocysts; 1+, mild focal infection; 2+, moderate multifocal infection; 3+, severe diffuse infection; settings: HE and immunohistochemistry, most severe area, day 14, dose not stated
Method: as §1

[7] = system: C. parvum HNJ-1 strain; test: In vitro C. parvum growth inhibition assay (Sporo-Glo staining, fluorescence microscopy count in infected HCT-8 cells); format: cell-based, Cryptosporidium parvum; settings: for EC50: read-out: EC50 value
Method: The primary screening of compounds for C. parvum was performed as follows: HCT-8 cells were seeded in 96-well plates at a density of 2 × 10^4 cells/well and allowed to grow overnight. Before infecting cells, Cryptosporidium oocysts were excysted to sporozoites. 87 compounds were tested against C. parvum at a single concentration of 1 μM. Each compound was tested once. Infected HCT-8 cells and uninfected HCT-8 cells were used as positive and negative controls, respectively, in medium containing 0.1% DMSO. Nitazoxanide was used as a standard comparative drug. In vitro inhibition assays were carried out as previously described. Briefly, oocysts were suspended in 1 ml of 0.1% sodium hypochlorite in PBS, incubated for 5 min at 4°C, centrifuged for 10 min at 3000 rpm, and washed three times in PBS. The oocysts were then suspended in excystation solution consisting of 0.75% sodium taurocholate and 0.25% trypsin dissolved in 0.1 M phosphate buffer (with 93.4 mM K2HPO4 and 6.5 mM KH2PO4; pH 8.0) and incubated at 37°C for 1 h. The oocyst/sporozoite suspensions were then rinsed in 1 x PBS (with 137 mM NaCl, 2.7 mM KCl, 8 mM Na2HPO4, and 2 mM KH2PO4; pH 7.5) once more before being filtered through a 5-μm pore-size PVDF filter (Millipore, Burlington, MA, USA) with 5 ml syringe to remove the oocyst wall. HCT-8 cells were seeded in 96-well plates (Thermo Fisher Scientific Inc., MA, USA) and incubated overnight. The cells were then infected with C. parvum sporozoites (4 ×10^4 sporozoites/well) containing in RPMI-1640 medium for 3 h. After 3h inoculation, the non-infected parasite or debris were washed with new RPMI-1640 media. At this point, in RPMI-1640 medium containing 1 μM library compounds were added. Infected cells were incubated for an additional 45 h. Following incubation, the infected cells were fixed for 10 minutes in ice-cold 100% methanol at room temperature. Plates were then carefully rinsed 3 times with PBS. The parasite infected cells were then blocked with 1% bovine serum albumin (BSA) in PBS for 30 minutes and then stained with Sporo-Glo (an anti-Cryptosporidium polyclonal antibody) (Waterborne Environmental, Inc., VA, USA) protected from light for 1 h at room temperature. Finally, cells were washed twice with 1 x PBS-T (1 x PBS supplemented with 0.01% Tween). A Keyence BZ-II 9000 was used to capture the images (KEYENCE, Osaka, Japan). The plates were imaged with a HS all-in-one fluorescence microscope using a 20 x objective. The image output was imported into Microsoft excel for data organization and analyses. All C. parvum parasite in the well were counted.
For a second investigation, four selective hit compounds were used to determine the half-maximum inhibitory concentration (EC50). The parasites were treated with various doses of compounds (ranging from 0.008–1 μM). HCT-8 cells (2 × 10^4 cells/well) were grown for 24 h before being infected with 4 × 10^4 C. parvum sporozoites in 96-well plates. […] Sporo-Glo was used for C. parvum staining as described above. Fluorescence microscopy with a Keyence BZ-II 9000 imager was used to count all Cryptosporidium in the wells (KEYENCE, Osaka, Japan). EC50 vales were determined by analyzing dose-response curves made by GraphPad Prism (GraphPad Software, CA, USA).

[8] = system: Cryptosporidium parvum; settings: cited from earlier work
[9] = initial dose-finding (S1 Table), 0.1 mg/kg BW, 1 mouse

CC(=O)O[C@H]1C[C@]2(O)[C@@H]3CC[C@@H]4C[C@@H](O)CC[C@]4(C)[C@H]3CC[C@]2(C)[C@H]1c1ccc(=O)oc1 [Bufotalin]
No. of oocysts, Mean ([1]; 0.025 mg/kg BW oral): 92.3 | % reduction in oocyst shedding ([1]; 0.025 mg/kg BW oral): 58.2% | No. of oocysts, Mean ([1]; 0.05 mg/kg BW oral): 86.6 | % reduction in oocyst shedding ([1]; 0.05 mg/kg BW oral): 60.8% | No. of oocysts, Mean ([1]; 0.1 mg/kg BW oral): 48.5 | % reduction in oocyst shedding ([1]; 0.1 mg/kg BW oral): 78.1% | % of oocysts shedding [1, 9]: 28.8% | % reduction in oocysts shedding [1, 9]: 71.2% | histological findings in liver ([2]; HE stain, infected treated mice (S3 Fig)): inflammation and hepatocellular hypertrophy | body weight of treated infected mice [3]: not significant | CC50 at 48 h [4]: 10.9 µM | viability at 48 h, 1 µM ([4]; Host cell viability (%), HCT-8 cells, 48 h, 1 μM): > 95% | Host cell viability (%) [5]: 95.1% | severity of C. parvum infection in ileum, Score [6]: 1+ | EC50 ([7]; Cryptosporidium parvum, HCT-8, 45 h): 0.0634 ± 0.0187 µM | inhibition at 1 µM ([7]; Cryptosporidium parvum, HCT-8, 45 h, read-out: Parasite inhibition (%)): 82.9% | Selectivity index ([7]; ratio of CC50 (HCT-8) / EC50 (C. parvum)): 172.3

CC(=O)Oc1ccccc1C(=O)Nc1ncc([N+](=O)[O-])s1 [Nitazoxanide]
No. of oocysts, Mean ([1]; 100 mg/kg BW oral): 81.1 | IC50 ([8]; ref 30 (Bessoff et al., 2013), read-out: IC50 against Cryptosporidium parvum): ~3.7 µM and 3.7 µM | EC50 ([8]; ref PMID: 22167242, PMID: 29341586, PMID: 30297368, read-out: range of EC50 value): 1.55 to 5.1 µM | histological findings in liver ([2]; mouse, in vivo): karyomegaly and hepatocellular hypertrophy | severity of C. parvum infection in ileum, Score [6]: 2+ | EC50 ([7]; Cryptosporidium parvum, HCT-8, C. parvum, dose-dependent curve of comparative drug (response to reviewers)): 4.14 ± 0.54 µM
